# In ChEMBL document CHEMBL3885881, “DrugMatrix”:
# Organism: Rattus norvegicus
# Assay: DrugMatrix - Regimen: Daily Repeat
# Format: toxicity, organism-based, Sprague-Dawley
# Design: regimen Daily Repeat, gender Male, age 6-8 weeks
# Settings: in vivo, po, route oral GAVAGE, vehicle .5 % CMC; for BASOPHIL / EOSINOPHIL / ERYTHROCYTE COUNT / HEMATOCRIT / HEMOGLOBIN / LEUKOCYTE COUNT / LYMPHOCYTE / MEAN CORPUSCULAR HEMOGLOBIN / MEAN CORPUSCULAR HEMOGLOBIN CONCENTRATION / MEAN CORPUSCULAR VOLUME / MONOCYTE / NEUTROPHIL / PLATELET COUNT / ABSOLUTE BASOPHIL / ABSOLUTE EOSINOPHIL / ABSOLUTE LYMPHOCYTE / ABSOLUTE MONOCYTE / ABSOLUTE SEGMENTED NEUTROPHIL / NUCLEATED RED BLOOD CELLS: tissue Blood
# [1] = 0 mg/kg, 72 h, dose level Control, time 3 day
# [2] = 0 mg/kg, 72 h, tissue Plasma, dose level Control, time 3 day
# [3] = 0 mg/kg, 120 h, dose level Control, time 5 day
# [4] = 0 mg/kg, 120 h, tissue Plasma, dose level Control, time 5 day
# [5] = 7 mg/kg, 72 h, dose level Low, time 3 day
# [6] = 7 mg/kg, 72 h, tissue Plasma, dose level Low, time 3 day
# [7] = 7 mg/kg, 120 h, dose level Low, time 5 day
# [8] = 7 mg/kg, 120 h, tissue Plasma, dose level Low, time 5 day
compound,measurement,setting,value
NC1=NC(=O)C(c2ccccc2)O1 (stereo unspecified) [PEMOLINE],BASOPHIL,[1],0%
same,EOSINOPHIL,[1],0.33%
same,ERYTHROCYTE COUNT,[1],6.03 x10E6/uL
same,HEMATOCRIT,[1],38.8%
same,HEMOGLOBIN,[1],14.26 G/DL
same,LEUKOCYTE COUNT,[1],10.64 x10E3/uL
same,LYMPHOCYTE,[1],83.33%
same,MEAN CORPUSCULAR HEMOGLOBIN,[1],23.64 pg
same,MEAN CORPUSCULAR HEMOGLOBIN CONCENTRATION,[1],36.74 G/DL
same,MEAN CORPUSCULAR VOLUME,[1],64.32 fL
same,MONOCYTE,[1],3.33%
same,NEUTROPHIL,[1],13%
same,PLATELET COUNT,[1],1264.4 x10E3/uL
same,ALANINE AMINOTRANSFERASE,[2],38.83 u/L
same,ALBUMIN,[2],3.55 G/DL
same,ALKALINE PHOSPHATASE,[2],368.33 u/L
same,ASPARTATE AMINOTRANSFERASE,[2],66.17 u/L
same,BLOOD UREA NITROGEN,[2],15.67 mg/dL
same,CHLORIDE,[2],104.33 MEQ/L
same,CHOLESTEROL,[2],76.5 mg/dL
same,CREATINE PHOSPHOKINASE,[2],166.83 u/L
same,CREATININE,[2],0.52 mg/dL
same,GLUCOSE,[2],173.17 mg/dL
same,PHOSPHORUS,[2],11.68 mg/dL
same,POTASSIUM,[2],6.43 MEQ/L
same,SODIUM,[2],149.5 MEQ/L
same,TOTAL PROTEIN,[2],5.93 G/DL
same,BASOPHIL,[3],0%
same,EOSINOPHIL,[3],0%
same,ERYTHROCYTE COUNT,[3],5.88 x10E6/uL
same,HEMATOCRIT,[3],37.87%
same,HEMOGLOBIN,[3],14.48 G/DL
same,LEUKOCYTE COUNT,[3],12.43 x10E3/uL
same,LYMPHOCYTE,[3],84.17%
same,MEAN CORPUSCULAR HEMOGLOBIN,[3],24.65 pg
same,MEAN CORPUSCULAR HEMOGLOBIN CONCENTRATION,[3],38.25 G/DL
same,MEAN CORPUSCULAR VOLUME,[3],64.47 fL
same,MONOCYTE,[3],4.33%
same,NEUTROPHIL,[3],11.5%
same,PLATELET COUNT,[3],1182.33 x10E3/uL
same,ALANINE AMINOTRANSFERASE,[4],38.67 u/L
same,ALBUMIN,[4],3.55 G/DL
same,ALKALINE PHOSPHATASE,[4],342.5 u/L
same,ASPARTATE AMINOTRANSFERASE,[4],63.33 u/L
same,BLOOD UREA NITROGEN,[4],15.5 mg/dL
same,CHLORIDE,[4],104 MEQ/L
same,CHOLESTEROL,[4],75.5 mg/dL
same,CREATINE PHOSPHOKINASE,[4],142.5 u/L
same,CREATININE,[4],0.62 mg/dL
same,GLUCOSE,[4],165.17 mg/dL
same,PHOSPHORUS,[4],10.87 mg/dL
same,POTASSIUM,[4],6.85 MEQ/L
same,SODIUM,[4],150.17 MEQ/L
same,TOTAL PROTEIN,[4],5.93 G/DL
same,ABSOLUTE BASOPHIL,[5],0 CELLS/uL
same,ABSOLUTE EOSINOPHIL,[5],0 CELLS/uL
same,ABSOLUTE LYMPHOCYTE,[5],8380 CELLS/uL
same,ABSOLUTE MONOCYTE,[5],87.67 CELLS/uL
same,ABSOLUTE SEGMENTED NEUTROPHIL,[5],732.33 CELLS/uL
same,BASOPHIL,[5],0%
same,EOSINOPHIL,[5],0%
same,ERYTHROCYTE COUNT,[5],5.42 x10E6/uL
same,HEMATOCRIT,[5],34%
same,HEMOGLOBIN,[5],13.77 G/DL
same,LEUKOCYTE COUNT,[5],9.2 x10E3/uL
same,LYMPHOCYTE,[5],91.33%
same,MEAN CORPUSCULAR HEMOGLOBIN,[5],25.43 pg
same,MEAN CORPUSCULAR HEMOGLOBIN CONCENTRATION,[5],40.5 G/DL
same,MEAN CORPUSCULAR VOLUME,[5],62.87 fL
same,MONOCYTE,[5],1%
same,NEUTROPHIL,[5],7.67%
same,NUCLEATED RED BLOOD CELLS,[5],0 /100WBC
same,PLATELET COUNT,[5],1245 x10E3/uL
same,ALANINE AMINOTRANSFERASE,[6],52 u/L
same,ALBUMIN,[6],4.3 G/DL
same,ALKALINE PHOSPHATASE,[6],415.33 u/L
same,ASPARTATE AMINOTRANSFERASE,[6],90 u/L
same,BLOOD UREA NITROGEN,[6],14 mg/dL
same,CARBON DIOXIDE,[6],32 mmol/L
same,CHLORIDE,[6],99.33 MEQ/L
same,CHOLESTEROL,[6],78.67 mg/dL
same,CREATINE PHOSPHOKINASE,[6],330.33 u/L
same,CREATININE,[6],0.25 mg/dL
same,GLUCOSE,[6],141.33 mg/dL
same,LACTATE DEHYDROGENASE,[6],168.67 u/L
same,LIPASE,[6],10.33 u/L
same,PHOSPHORUS,[6],11.6 mg/dL
same,POTASSIUM,[6],6.56 MEQ/L
same,SODIUM,[6],145.47 MEQ/L
same,TOTAL BILIRUBIN,[6],0.2 mg/dL
same,TOTAL PROTEIN,[6],6.2 G/DL
same,URIC ACID,[6],1.03 mg/dL
same,ABSOLUTE BASOPHIL,[7],0 CELLS/uL
same,ABSOLUTE EOSINOPHIL,[7],0 CELLS/uL
same,ABSOLUTE LYMPHOCYTE,[7],13324.33 CELLS/uL
same,ABSOLUTE MONOCYTE,[7],202.67 CELLS/uL
same,ABSOLUTE SEGMENTED NEUTROPHIL,[7],1839.67 CELLS/uL
same,BASOPHIL,[7],0%
same,EOSINOPHIL,[7],0%
same,ERYTHROCYTE COUNT,[7],5.15 x10E6/uL
same,HEMATOCRIT,[7],31.77%
same,HEMOGLOBIN,[7],12.83 G/DL
same,LEUKOCYTE COUNT,[7],15.37 x10E3/uL
same,LYMPHOCYTE,[7],86.67%
same,MEAN CORPUSCULAR HEMOGLOBIN,[7],24.93 pg
same,MEAN CORPUSCULAR HEMOGLOBIN CONCENTRATION,[7],40.47 G/DL
same,MEAN CORPUSCULAR VOLUME,[7],61.63 fL
same,MONOCYTE,[7],1.33%
same,NEUTROPHIL,[7],12%
same,NUCLEATED RED BLOOD CELLS,[7],0 /100WBC
same,PLATELET COUNT,[7],1293.33 x10E3/uL
same,ALANINE AMINOTRANSFERASE,[8],55.67 u/L
same,ALBUMIN,[8],4.1 G/DL
same,ALKALINE PHOSPHATASE,[8],349 u/L
same,ASPARTATE AMINOTRANSFERASE,[8],73.67 u/L
same,BLOOD UREA NITROGEN,[8],18.33 mg/dL
